“And” between values parts separate entries of the source, which are not always exact repeats. Equal values may be shown once. Toxic doses and inconclusive results are not listed.
Tested on: BDF1 mice, P388 leukemia ip, median survival T/C
Assay: NCI In Vivo Anticancer Drug Screen. Data for tumor model P388 Leukemia (intraperitoneal) in B6D2F1 (BDF1) mice
Conditions: endpoint: median survival time, higher = longer survival
Description: The antitumor activity of compounds was measured in mice bearing transplantable tumors. Survival or tumor size were measured and the results are expressed as the measurement made in the treated group (T) divided by the measurement made in the vehicle treated control group (C). The tumor model used in this assay is P388 Leukemia (intraperitoneal) in B6D2F1 (BDF1) mice

[1] = dose: 100.0 mg/kg/injection, schedule: Q01DX009 (ip), vehicle: Klucel (hydroxypropylcellulose) (HPC)
[2] = dose: 200.0 mg/kg/injection, schedule: Q01DX009 (ip), vehicle: Klucel (hydroxypropylcellulose) (HPC)
[3] = dose: 100.0 mg/kg/injection, schedule: Q04DX003 (ip), vehicle: saline
[4] = dose: 200.0 mg/kg/injection, schedule: Q04DX003 (ip), vehicle: saline
[5] = dose: 400.0 mg/kg/injection, schedule: Q04DX003 (ip), vehicle: saline
[6] = dose: 100.0 mg/kg/injection, schedule: Q01DX009 (ip), vehicle: saline with Tween-80
[7] = dose: 100.0 mg/kg/injection, schedule: Q04DX003 (ip), vehicle: saline with Tween-80
[8] = dose: 3.12 mg/kg/injection, schedule: Q04DX003 (ip), vehicle: saline
[9] = dose: 100.0 mg/kg/injection, schedule: Q01DX009 (ip), vehicle: other
[10] = dose: 200.0 mg/kg/injection, schedule: Q01DX009 (ip), vehicle: other
[11] = dose: 1.56 mg/kg/injection, schedule: Q01DX009 (ip), vehicle: saline
[12] = dose: 50.0 mg/kg/injection, schedule: Q04DX003 (ip), vehicle: saline with Tween-80

C[n+]1ccc(Nc2ccc(NC(=O)c3ccc(Nc4cc[n+](C)c5ccc(N)cc45)cc3)cc2)cc1
T/C (dose: 1.0 mg/kg/injection, schedule: Q01DX009 (ip), vehicle: Klucel (hydroxypropylcellulose) (HPC)): 211 % of control
T/C (dose: 2.0 mg/kg/injection, schedule: Q01DX009 (ip), vehicle: Klucel (hydroxypropylcellulose) (HPC)): 170 % of control and 195 % of control
T/C (dose: 3.24 mg/kg/injection, schedule: Q04DX003 (ip), vehicle: water): 173 % of control
T/C (dose: 4.0 mg/kg/injection, schedule: Q01DX009 (ip), vehicle: Klucel (hydroxypropylcellulose) (HPC)): 243 % of control and 250 % of control
T/C (dose: 4.32 mg/kg/injection, schedule: Q01DX009 (ip), vehicle: water): 254 % of control
T/C (dose: 5.4 mg/kg/injection, schedule: Q04DX003 (ip), vehicle: water): 180 % of control
T/C (dose: 7.2 mg/kg/injection, schedule: Q01DX009 (ip), vehicle: water): 261 % of control
T/C (dose: 8.0 mg/kg/injection, schedule: Q01DX009 (ip), vehicle: Klucel (hydroxypropylcellulose) (HPC)): 244 % of control and 250 % of control
T/C (dose: 9.0 mg/kg/injection, schedule: Q04DX003 (ip), vehicle: water): 220 % of control
T/C (dose: 15.0 mg/kg/injection, schedule: Q04DX003 (ip), vehicle: water): 103 % of control

CN(/N=N/c1nc[nH]c1C(N)=O)C(C)(C)C
T/C [1]: 117 % of control
T/C [2]: 108 % of control
T/C (dose: 400.0 mg/kg/injection, schedule: Q01DX009 (ip), vehicle: Klucel (hydroxypropylcellulose) (HPC)): 88 % of control

OC12CCC[N+]1(Cc1ccccc1)CCC2 (stereo not given)
T/C (dose: 25.0 mg/kg/injection, schedule: Q01DX010 (ip), vehicle: carboxymethylcellulose (CMC)): 90 % of control

O=Cc1c[nH]c(=O)[nH]c1=O
T/C [3]: 91 % of control
T/C [4]: 99 % of control
T/C [5]: 88 % of control

C[C@H]1CC2=CC(=O)CC[C@]2(C)[C@H]2CC[C@@]3(C)[C@@H](CC[C@]3(C)O)[C@H]12
T/C [1]: 100 % of control
T/C (dose: 100.0 mg/kg/injection, schedule: Q04DX003 (ip), vehicle: Klucel (hydroxypropylcellulose) (HPC)): 100 % of control
T/C [2]: 105 % of control
T/C (dose: 200.0 mg/kg/injection, schedule: Q04DX003 (ip), vehicle: Klucel (hydroxypropylcellulose) (HPC)): 95 % of control
T/C (dose: 400.0 mg/kg/injection, schedule: Q04DX003 (ip), vehicle: Klucel (hydroxypropylcellulose) (HPC)): 100 % of control

CCOC(=O)C(C1=NC(C)(C)CC(C)O1)C1CCCCC1 (stereo not given)
T/C (dose: 50.0 mg/kg/injection, schedule: Q01DX001 (ip), vehicle: saline sonified): 120 % of control
T/C (dose: 100.0 mg/kg/injection, schedule: Q01DX001 (ip), vehicle: saline sonified): 110 % of control
T/C (dose: 200.0 mg/kg/injection, schedule: Q01DX001 (ip), vehicle: saline sonified): 105 % of control

COc1ccc(OC)c(/C=C/C(=O)NCC(O)CO)c1 (stereo not given)
T/C (dose: 50.0 mg/kg/injection, schedule: Q01DX009 (ip), vehicle: saline with Tween-80): 95 % of control
T/C [6]: 100 % of control

Nc1nc2c(c(=O)[nH]1)NC(CCNc1ccc(C(=O)O)cc1)CN2 (stereo not given)
T/C [7]: 86 % of control

COc1cc2c(cc1OC)CC[N+](C)=C2
T/C (dose: 3.12 mg/kg/injection, schedule: Q01DX009 (ip), vehicle: saline): 102 % of control
T/C [8]: 104 % of control
T/C (dose: 6.25 mg/kg/injection, schedule: Q01DX009 (ip), vehicle: saline): 105 % of control
T/C (dose: 6.25 mg/kg/injection, schedule: Q04DX003 (ip), vehicle: saline): 97 % of control and 122 % of control
T/C (dose: 12.5 mg/kg/injection, schedule: Q01DX009 (ip), vehicle: saline): 102 % of control
T/C (dose: 12.5 mg/kg/injection, schedule: Q04DX003 (ip), vehicle: saline): 95 % of control and 97 % of control
T/C (dose: 25.0 mg/kg/injection, schedule: Q01DX009 (ip), vehicle: saline): 102 % of control
T/C (dose: 25.0 mg/kg/injection, schedule: Q04DX003 (ip), vehicle: saline): 91 % of control
T/C (dose: 50.0 mg/kg/injection, schedule: Q01DX009 (ip), vehicle: saline): 91 % of control
T/C (dose: 50.0 mg/kg/injection, schedule: Q04DX003 (ip), vehicle: saline): 121 % of control
T/C [3]: 100 % of control

CCOC(=O)C(C(=O)OCC)C(C)C
T/C [3]: 105 % of control
T/C [4]: 105 % of control
T/C [5]: 115 % of control

COc1ccc(Br)c(C=O)c1OS(=O)(=O)c1ccc(C)cc1
T/C (dose: 25.0 mg/kg/injection, schedule: Q01DX009 (ip), vehicle: other): 100 % of control
T/C (dose: 50.0 mg/kg/injection, schedule: Q01DX009 (ip), vehicle: other): 110 % of control
T/C [9]: 94 % of control
T/C [10]: 99 % of control
T/C (dose: 400.0 mg/kg/injection, schedule: Q01DX009 (ip), vehicle: other): 95 % of control

Cc1cc(Cl)c2ccccc2c1N
T/C (dose: 44.0 mg/kg/injection, schedule: Q01DX009 (ip), vehicle: other): 100 % of control
T/C (dose: 66.0 mg/kg/injection, schedule: Q01DX009 (ip), vehicle: other): 110 % of control
T/C [9]: 115 % of control
T/C (dose: 150.0 mg/kg/injection, schedule: Q01DX009 (ip), vehicle: other): 110 % of control

CC1CC[N-]CC1.CC1CC[N-]CC1.CC1CC[N-]CC1.CC1CC[N-]CC1.[Pt+4]
T/C (dose: 0.09 mg/kg/injection, schedule: Q01DX009 (ip), vehicle: saline): 88 % of control
T/C (dose: 0.19 mg/kg/injection, schedule: Q01DX009 (ip), vehicle: saline): 93 % of control
T/C (dose: 0.23 mg/kg/injection, schedule: Q01DX009 (ip), vehicle: saline): 88 % of control
T/C (dose: 0.25 mg/kg/injection, schedule: Q01DX009 (ip), vehicle: saline): 102 % of control
T/C (dose: 0.39 mg/kg/injection, schedule: Q01DX009 (ip), vehicle: saline): 92 % of control
T/C (dose: 0.5 mg/kg/injection, schedule: Q01DX009 (ip), vehicle: saline): 102 % of control
T/C (dose: 0.65 mg/kg/injection, schedule: Q01DX009 (ip), vehicle: saline): 92 % of control
T/C (dose: 0.78 mg/kg/injection, schedule: Q01DX009 (ip), vehicle: saline): 88 % of control and 105 % of control
T/C (dose: 1.0 mg/kg/injection, schedule: Q01DX009 (ip), vehicle: saline): 112 % of control
T/C [11]: 90 % of control
T/C (dose: 1.56 mg/kg/injection, schedule: Q04DX003 (ip), vehicle: saline): 109 % of control
T/C (dose: 2.0 mg/kg/injection, schedule: Q01DX009 (ip), vehicle: saline): 103 % of control
T/C [8]: 95 % of control

CC(=O)OCCN1CCN(CCCN2c3ccccc3Sc3ccc(C(F)(F)F)cc32)CC1
T/C (dose: 0.69 mg/kg/injection, schedule: Q01DX009 (ip), vehicle: saline): 104 % of control
T/C (dose: 1.04 mg/kg/injection, schedule: Q01DX009 (ip), vehicle: saline): 104 % of control
T/C [11]: 120 % of control
T/C (dose: 2.34 mg/kg/injection, schedule: Q01DX009 (ip), vehicle: saline): 108 % of control
T/C (dose: 25.0 mg/kg/injection, schedule: Q04DX003 (ip), vehicle: saline with Tween-80): 117 % of control
T/C [12]: 91 % of control

CCCCCCC(O)CCCCCC
T/C [9]: 90 % of control
T/C [10]: 105 % of control

CCC1NC(=O)C(NC(=O)c2ncccc2O)C(C)OC(=O)C(c2ccccc2)NC(=O)C2CC(=O)CCN2C(=O)C(Cc2ccccc2)N(C)C(=O)C2CCCN2C1=O (stereo not given) (tested in a mixture with another compound)
T/C (dose: 18.75 mg/kg/injection, schedule: Q01DX009 (ip), vehicle: Klucel (hydroxypropylcellulose) (HPC)): 99 % of control
T/C (dose: 37.5 mg/kg/injection, schedule: Q01DX009 (ip), vehicle: Klucel (hydroxypropylcellulose) (HPC)): 105 % of control
T/C (dose: 75.0 mg/kg/injection, schedule: Q01DX009 (ip), vehicle: Klucel (hydroxypropylcellulose) (HPC)): 111 % of control

CC(=O)N(C)Nc1ccccc1
T/C [12]: 100 % of control
T/C [7]: 90 % of control and 100 % of control
T/C (dose: 200.0 mg/kg/injection, schedule: Q04DX003 (ip), vehicle: saline with Tween-80): 105 % of control

CC(=O)Nc1ccc(S(=O)(=O)NC(N)=O)cc1
T/C [6]: 105 % of control
T/C (dose: 400.0 mg/kg/injection, schedule: Q01DX009 (ip), vehicle: saline with Tween-80): 98 % of control
